Test results: PubChem BioAssay (NCI)
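All cell lines were grown in 96-well plates and treated with compound for 48 hours. GI50 is the concentration that inhibits growth by half. TGI is the concentration that stops growth completely.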

Experiments:
Assay in all cases: NCI tumour cell line growth inhibition, 48 h
[1] = system: UACC-62 melanoma
[2] = system: RPMI-8226 leukemia
[3] = system: SW-620 colon
[4] = system: NCI/ADR-RES ovarian
[5] = system: PC-3 prostate
[6] = system: UO-31 renal
[7] = system: CAKI-1 renal
[8] = system: MCF7 breast
[9] = system: IGROV1 ovarian
[10] = system: UACC-257 melanoma
[11] = system: OVCAR-3 ovarian
[12] = system: BT-549 breast
[13] = system: NCI-H226 lung
[14] = system: SK-MEL-5 melanoma
[15] = system: SK-OV-3 ovarian
[16] = system: M14 melanoma
[17] = system: RXF 393 renal
[18] = system: HOP-92 NSCLC
[19] = system: A549 NSCLC
[20] = system: HCC-2998 colon
[21] = system: HL-60(TB) leukemia
[22] = system: SR leukemia
[23] = system: U251 CNS
[24] = system: HCT-116 colon
[25] = system: COLO 205 colon
[26] = system: 786-0 renal
[27] = system: SF-539 CNS
[28] = system: SK-MEL-28 melanoma
[29] = system: OVCAR-4 ovarian
[30] = system: SK-MEL-2 melanoma
[31] = system: EKVX NSCLC
[32] = system: ACHN renal
[33] = system: SN12C renal
[34] = system: HOP-62 NSCLC
[35] = system: SF-268 CNS
[36] = system: MALME-3M melanoma
[37] = system: OVCAR-8 ovarian
[38] = system: HCT-15 colon
[39] = system: MOLT-4 leukemia
[40] = system: SF-295 CNS
[41] = system: A498 renal
[42] = system: HS 578T breast
[43] = system: SNB-75 CNS
[44] = system: T-47D breast
[45] = system: MDA-MB-231 breast
[46] = system: SNB-19 CNS
[47] = system: TK-10 renal
[48] = system: K-562 leukemia
[49] = system: DU-145 prostate
[50] = system: OVCAR-5 ovarian
[51] = system: NCI-H522 lung
[52] = system: NCI-H460 lung
[53] = system: MDA-MB-435
[54] = system: KM12 colon
[55] = system: HT29 colon
[56] = system: NCI-H23 lung

## C#Cc1cc(OC)c(C(=O)Nc2ccc(F)cc2C(=O)Nc2cccc(S(=O)(=O)C(F)(F)F)c2)cn1
[1]
  GI50: 778 nM
  TGI: 2310 nM
[2]
  GI50: 174 nM
  TGI: 550 nM
[3]
  GI50: 1130 nM
  TGI: 3.42 µM
[4]
  GI50: 52.1 nM
  TGI: 340 nM
[5]
  GI50: 1520 nM
  TGI: 14.5 µM
[6]
  GI50: 17.5 nM
  TGI: 44.9 nM
[7]
  GI50: 149 nM
  TGI: 884 nM
[8]
  GI50: 727 nM
  TGI: > 100 µM
[9]
  GI50: 20.8 nM
  TGI: 51.2 nM
[10]
  GI50: 3.03 µM
  TGI: > 83.6 µM
[11]
  GI50: 224 nM
  TGI: 576 nM
[12]
  GI50: 500 nM
  TGI: 1850 nM
[13]
  GI50: 1720 nM
  TGI: 8.9 µM
[14]
  GI50: 1240 nM
  TGI: 2880 nM
[15]
  GI50: 205 nM
  TGI: 412 nM
[16]
  GI50: 1270 nM
  TGI: > 28.4 µM
[17]
  GI50: 337 nM
  TGI: 1190 nM
[18]
  GI50: 20.1 nM
  TGI: 53.9 nM
[19]
  GI50: 1060 nM
  TGI: 5.2 µM
[20]
  GI50: 2100 nM
  TGI: 4.64 µM
[21]
  GI50: 28.9 nM
  TGI: 84.5 nM
[22]
  GI50: 21.6 nM
  TGI: 68.9 nM
[23]
  GI50: 280 nM
  TGI: 840 nM
[24]
  GI50: 417 nM
  TGI: > 100 µM
[25]
  GI50: 1680 nM
  TGI: > 42.7 µM
[26]
  GI50: 24.1 nM
  TGI: 63.3 nM
[27]
  GI50: 99.9 nM
  TGI: 252 nM
[28]
  GI50: 2840 nM
  TGI: > 25.8 µM
[29]
  GI50: 1980 nM
  TGI: > 26.6 µM
[30]
  GI50: 2870 nM
  TGI: 10.6 µM
[31]
  GI50: 290 nM
  TGI: 1100 nM
[32]
  GI50: 205 nM
  TGI: 1670 nM
[33]
  GI50: 542 nM
  TGI: > 36.7 µM
[34]
  GI50: 38.1 nM
  TGI: 212 nM
[35]
  GI50: 285 nM
  TGI: 927 nM
[36]
  GI50: 43.3 nM
  TGI: 130 nM
[37]
  GI50: 389 nM
  TGI: 4.43 µM
[38]
  GI50: 629 nM
  TGI: 2680 nM
[39]
  GI50: 322 nM
  TGI: 1350 nM
[40]
  GI50: 176 nM
  TGI: 333 nM
[41]
  GI50: 250 nM
  TGI: 656 nM
[42]
  GI50: 525 nM
  TGI: 3.14 µM
[43]
  GI50: 190 nM
  TGI: 529 nM
[44]
  GI50: 1730 nM
  TGI: 4.3 µM
[45]
  GI50: 117 nM
  TGI: 596 nM
[46]
  GI50: 1590 nM
  TGI: 3.55 µM
[47]
  GI50: 5.86 µM
  TGI: > 100 µM
[48]
  GI50: 666 nM
  TGI: > 100 µM
[49]
  GI50: 3.25 µM
  TGI: > 100 µM
[50]
  GI50: 269 nM
  TGI: 1800 nM
[51]
  GI50: 60.6 nM
  TGI: 237 nM
[52]
  GI50: 419 nM
  TGI: 1690 nM
[53]
  GI50: 1750 nM
  TGI: > 23.8 µM
[54]
  GI50: 299 nM
  TGI: 1540 nM
[55]
  GI50: 447 nM
  TGI: 2500 nM
[56]
  GI50: 101 nM
  TGI: 559 nM
